{"source": "paper PMC12707362", "about": "“Targeting Aurora Kinases as Essential Cell‐Cycle Regulators to Deliver Multi‐Stage Antimalarials Against Plasmodium Falciparum” (Angewandte Chemie (International Ed. in English), 2025)", "key": {"recombinant PfNek1": {"test_system": "recombinant PfNek1", "assay": "KinaseSeeker single-point assay, PfNek1", "type": "binding, Plasmodium falciparum", "conditions": "single point 1 µM"}, "[1]": {"test_system": "pool of barcoded drug-resistant P. falciparum parasites (Dd2 and 3D7 backgrounds)", "type": "cell-based, Plasmodium falciparum", "conditions": "3xIC50", "method": "The pool consisted of 52 lines (Supplementary File S2) in both the Dd2 and 3D7 backgrounds, including wild-type, that were barcoded at the pfpare locus (PF3D7_0709700)^[18], with unique 11-bp barcode sequences. The pool (triplicate cultures of 1 mL) was exposed to 3 xIC50 of each test compound, including the positive control compound halofuginone that targets prolyl tRNA synthetase. Growth of the pool was measured every 2–3 days by flow cytometry (Beckman CytoFlex 5), staining with 1xSYBR Green I and 200 nM MitoTracker Deep Red, and parasitemia maintained within a range <5% parasitemia. At day 14, samples were harvested, lysed with 0.05% saponin and parasite pellets collected. Barcodes were amplified by PCR and quantified by sequencing using an Oxford Nanopore minION. The change in barcode proportion (log2 fold change, LFC) was measured relative to the no-drug control, with LFC>2.5 indicating cross-resistance."}, "[2]": {"test_system": "P. berghei liver schizonts in HepG2-A16-CD81EGFP cells", "assay": "P. berghei (PbLuc) liver stage assay", "type": "cell-based", "conditions": "Plasmodium berghei", "description": "(B) Antiplasmodial activity of nine anticancer aurora kinase inhibitors (selected based on their PfNF54 ABS activity) against P. falciparum multidrug-resistant ABS parasites (PfDd2 and PfK1). (C) Kinobead competitive inhibition data.\nPlasmodium berghei (Pb) sporozoites were obtained by dissecting the salivary glands of infected Anopheles stephensi mosquitoes. These were provided by The SporoCore, at the University of Georgia, GA, USA (SporoCore.uga.edu). The parasites utilised a GFP-Lucama1-eef1 reporter line^[5]. These engineered parasites, termed Pb-Luc, were used to infect HepG2-A16-CD81EGFP cells. HepG2-A16-CD81EGFP cells stably transformed to express a GFP-CD81 fusion protein^[6] were cultured at 37 °C in 5% CO2 in DMEM (Invitrogen, Carlsbad, USA) supplemented with 10% FBS (Corning, NY, USA), 1X Pen/Strep/Glu (Thermo Fisher Scientific, USA). Compounds were prepared as 10 mM solutions in DMSO, and 10 nL of each (resulting in a final DMSO concentration of 0.1% per well) was transferred into assay plates using an ECHO 650 (Beckman). Concentrations ranged from 10 µM to 0.5 nM. Atovaquone (0.1 µM) served as a positive control, while 0.1% DMSO was used as a negative control. Liver stage (PbLuc) screening has been previously described^[7]. Human hepatic cells (3 × 10^3; HepG2-A16-CD81-EGFP) suspended in 5 µL of DMEM medium ([…], supplemented with 5% FBS, 5× Pen/Strep/Glu) were seeded in 1536-well plates (Greiner BioOne) using the MultiFlo FX (Agilent) 20 h before infection. PbLuc sporozoites, isolated from the salivary glands of A. stephensi mosquitoes, were filtered twice through a 20 µm nylon pore cell strainer. The sporozoites were resuspended in screening media, counted with a hemocytometer, and diluted to a final concentration of 200 sporozoites per µL. Each well received 1,000 sporozoites in 5 µL, dispensed via the GNF Dispenser II (GNF Systems). […] Luminescence was measured immediately with the Pherastar FSX reader (BMG Labtech). Luminescence values were normalized using the positive and negative controls. EC50 values were calculated with CDD Vault (Burlingame, CA). […]"}, "PfNF54 schizonts": {"test_system": "PfNF54 schizonts", "assay": "Stage-specific morphological evaluation, nuclei count per schizont", "type": "cell-based, Plasmodium falciparum", "conditions": "TAE684 3xIC50, hesperadin IC99; n = 30", "procedure": "Nuclei content was detected by consecutive staining with SYBR Green I (DNA fluorescence), detected in the FITC channel.\nTo determine the stage specificity during asexual intra-erythrocytic development, P. falciparum NF54 parasites were synchronised using 5% D-Sorbitol to obtain a >90% ring-stage population (6–10 h post-invasion, hpi). […] The rate of activity and stage-specificity was monitored morphologically using Giemsa-stained thin smears. Asexual intra-erythrocytic stage parasites were treated at ring, early/late trophozoite, and schizont stages, sampling every 12 h over a 48-hour period. Images were captured using a Nikon Eclipse 50i light microscope adapted with a Nikon camera (Nikon DS-Fi1) and NIS-Elements software. […] Parasite progression was monitored every 12 h over a 48-h period using flow cytometry, as described in^[11]. The IC50 speed assay was conducted as described in^[12]. Briefly, unsynchronised P. falciparum NF54 asexual proliferation was determined using a SYBR Green I proliferation-based assay and expressed as IC50 values as described earlier. Four incubation times were employed for each inhibitor: 96 (standard assay time), 72, 48 and 24 h. IC50 values were obtained from corrected dose-response curves using Graph-Pad Prism v10.5."}}, "note": "Like-named read-outs stand apart in the source and are kept apart here."}
{"smiles": "COc1cc(N2CCC(N3CCN(C)CC3)CC2)ccc1Nc1ncc(Cl)c(Nc2ccccc2S(=O)(=O)C(C)C)n1", "note": "[TAE684, NVP-TAE684]", "values": [{"measurement": "effect on PfNek1", "setting": "recombinant PfNek1", "value": 40, "unit": "%"}, {"measurement": "barcode population Day 14", "setting": "[1]; line 3D7 (Wild type)", "value": 5.080}, {"measurement": "barcode population Day 14", "setting": "[1]; line 3D7 ABCI3 R2180P", "value": 2.690}, {"measurement": "barcode population Day 14", "setting": "[1]; line 3D7 ACS10 M300I", "value": 3.200}, {"measurement": "barcode population Day 14", "setting": "[1]; line 3D7 ACS11 D648Y", "value": 0.620}, {"measurement": "barcode population Day 14", "setting": "[1]; line 3D7 ATP2 CNV2", "value": 2.100}, {"measurement": "barcode population Day 14", "setting": "[1]; line 3D7 DHFR-TS G378E", "value": 0.990}, {"measurement": "barcode population Day 14", "setting": "[1]; line 3D7 DHFR-TS I403L", "value": 3.400}, {"measurement": "barcode population Day 14", "setting": "[1]; line 3D7 FTb A515T", "value": 1.770}, {"measurement": "barcode population Day 14", "setting": "[1]; line 3D7 MDR2 K840N", "value": 1.670}, {"measurement": "barcode population Day 14", "setting": "[1]; line 3D7 NCR1 A1108T", "value": 2.230}, {"measurement": "barcode population Day 14", "setting": "[1]; line Dd2 (Wild type)", "value": 5.040}, {"measurement": "barcode population Day 14", "setting": "[1]; line Dd2-pol-delta D308A-E310A", "value": 0.01}, {"measurement": "barcode population Day 14", "setting": "[1]; line Dd2 ATP4 G358S", "value": 1.130}, {"measurement": "barcode population Day 14", "setting": "[1]; line Dd2 ATP4 L927V", "value": 1.370}, {"measurement": "barcode population Day 14", "setting": "[1]; line Dd2 ATP4 Q172H", "value": 3.070}, {"measurement": "barcode population Day 14", "setting": "[1]; line Dd2 AcAS A597V", "value": 0.650}, {"measurement": "barcode population Day 14", "setting": "[1]; line Dd2 AcAS T648M", "value": 2.430}, {"measurement": "barcode population Day 14", "setting": "[1]; line Dd2 AsnRS R487S", "value": 1.530}, {"measurement": "barcode population Day 14", "setting": "[1]; line Dd2 CARL I1139K-a", "value": 0.010}, {"measurement": "barcode population Day 14", "setting": "[1]; line Dd2 CARL I1139K-b", "value": 0.230}, {"measurement": "barcode population Day 14", "setting": "[1]; line Dd2 CARL V1103L", "value": 0.680}, {"measurement": "barcode population Day 14", "setting": "[1]; line Dd2 CLK3 H259P", "value": 1.590}, {"measurement": "barcode population Day 14", "setting": "[1]; line Dd2 CPSF Y408S E", "value": 1.340}, {"measurement": "barcode population Day 14", "setting": "[1]; line Dd2 CPSF Y408S S", "value": 0.580}, {"measurement": "barcode population Day 14", "setting": "[1]; line Dd2 CRT M343L", "value": 2.390}, {"measurement": "barcode population Day 14", "setting": "[1]; line Dd2 CSC1 L800P", "value": 1.280}, {"measurement": "barcode population Day 14", "setting": "[1]; line Dd2 DHFR-TS S216R", "value": 1.710}, {"measurement": "barcode population Day 14", "setting": "[1]; line Dd2 DHODH C276Y", "value": 3.290}, {"measurement": "barcode population Day 14", "setting": "[1]; line Dd2 DHODH F227I", "value": 0.650}, {"measurement": "barcode population Day 14", "setting": "[1]; line Dd2 DHODH I263F", "value": 0.120}, {"measurement": "barcode population Day 14", "setting": "[1]; line Dd2 DHODH L531F", "value": 0.480}, {"measurement": "barcode population Day 14", "setting": "[1]; line Dd2 GGPPS S228T", "value": 0.800}, {"measurement": "barcode population Day 14", "setting": "[1]; line Dd2 HSP90 A41S", "value": 2.760}, {"measurement": "barcode population Day 14", "setting": "[1]; line Dd2 IleRS E180D", "value": 2.660}, {"measurement": "barcode population Day 14", "setting": "[1]; line Dd2 IleRS L810F", "value": 1.180}, {"measurement": "barcode population Day 14", "setting": "[1]; line Dd2 IleRS V500A", "value": 0.960}, {"measurement": "barcode population Day 14", "setting": "[1]; line Dd2 MCP D195N", "value": 0.270}, {"measurement": "barcode population Day 14", "setting": "[1]; line Dd2 MCP P214T", "value": 5.790}, {"measurement": "barcode population Day 14", "setting": "[1]; line Dd2 PI4K S743F+H1484Y", "value": 1.350}, {"measurement": "barcode population Day 14", "setting": "[1]; line Dd2 PI4K S1320L+L1418F", "value": 1.960}, {"measurement": "barcode population Day 14", "setting": "[1]; line Dd2 PROTB5 A20V", "value": 1.090}, {"measurement": "barcode population Day 14", "setting": "[1]; line Dd2 PROTB5 M45I", "value": 1.500}, {"measurement": "barcode population Day 14", "setting": "[1]; line Dd2 ProRS L482H", "value": 6.690}, {"measurement": "barcode population Day 14", "setting": "[1]; line Dd2 QRP1 D1863Y", "value": 5.420}, {"measurement": "barcode population Day 14", "setting": "[1]; line Dd2 TyrRS S234C", "value": 2.590}, {"measurement": "barcode population Day 14", "setting": "[1]; line Dd2 UDP-GT F37V", "value": 0.250}, {"measurement": "barcode population Day 14", "setting": "[1]; line Dd2 cytBC1 G33V", "value": 1.410}, {"measurement": "barcode population Day 14", "setting": "[1]; line Dd2 cytBC1 V284L", "value": 1.550}, {"measurement": "barcode population Day 14", "setting": "[1]; line Dd2 eEF2 L755F", "value": 1.200}, {"measurement": "barcode population Day 14", "setting": "[1]; line Dd2 eEF2 Y186N", "value": 1.260}, {"measurement": "barcode population Day 14", "setting": "[1]; line Dd2 kelch13 C580C", "value": 2.860}, {"measurement": "barcode population Day 14", "setting": "[1]; line Dd2 kelch13 C580Y", "value": 2.440}, {"measurement": "barcode population Day 14", "setting": "[1]; line Dd2 kelch13 R539T", "value": 0.670}, {"measurement": "IC50", "setting": "[2]; read-out: IC50 P. berghei liver schizonts", "value": "< 200", "unit": "nM"}, {"measurement": "IC50", "setting": "[2]; 48 h, PbLuc, read-out: Pb liver stage IC50", "value": 660, "unit": "nM"}, {"measurement": "number of daughter merozoites per schizont", "setting": "PfNF54 schizonts", "value": "significant reduction in the number of daughter merozoites"}]}
